Test results as given in patent publication US20250235545A1, “POLYPEPTIDE CONJUGATE AND USE THEREOF” (SHANGHAI CHIXI BIOMEDICAL TECHNOLOGY CO., LTD, priority 2024, published 2025).
In brackets after ≈: the same amount, converted by molar mass. Like-named read-outs stand apart in the source and are kept apart here.

Tests used:
A2780 (ovarian cancer) = assay: cells; assay type: cell-based; settings: CCK8, 48 h; for IC50: Homo sapiens, A2780
Protocol: (§1) Different types of cells were cultured with complete media (RPMI1640 (DMEM high sugar medium)+10% fetal bovine serum+1XP/S+sodium pyruvate 1 mM solution) in an incubator at 37° C. and 5% CO2 until the cells grew to a sufficient number, and the cells were collected, centrifuged at 1,000 g for 5 min, resuspended with an appropriate volume of a 10% RMPI1640 (DMEM high sugar medium) medium and counted. In a 96-well culture plate, 100 μL of cell culture fluid containing different concentrations of drugs was added, control wells (0.1% DMSO) with only corresponding drug solvents without drugs, as well as blank wells (Blank) with only the medium but without cells were set, and three parallel wells were set in each group. After that, the cells after cell counting were inoculated onto 96-well culture plates, with 100 μL of cell suspension per well, and an inoculation concentration of the cells was 5,000 cells (100 μL)/well. The plates were then cultured in a CO2 (5%) incubator at 37° C. for 48 h. After 48 h, 10 μL of a cell proliferation staining reagent (CCK8) was added to each well, the plates were incubated in a cell incubator for around 2 h, and an absorbance at 450 nm was detected.
(§2) Cell survival rates and median inhibitory concentrations of the drugs on the cells were calculated.
as §1, with “serum+1×P/S+sodium” for “serum+1XP/S+sodium”, “adjusted to an appropriate density.” for “counted.”
(§3) Cell survival rates and median inhibitory concentrations (IC50) of the drugs on the cells were calculated.

[1] = system: A549 (non-small cell lung cancer); assay: cells; assay type: cell-based; settings: CCK8, 48 h; for IC50: Homo sapiens, A549
Protocol: as §1, §2
as §1, with “serum+1×P/S+sodium” for “serum+1XP/S+sodium”, “adjusted to an appropriate density.” for “counted.”
as §3

SJSA-1 (sarcoma tissue) = assay: cells; assay type: cell-based; settings: CCK8, 48 h; for IC50: Homo sapiens, SJSA-1
Protocol: as §1, §2
as §1, with “serum+1×P/S+sodium” for “serum+1XP/S+sodium”, “adjusted to an appropriate density.” for “counted.”
as §3

[2] = system: SKBR3 (breast cancer tissue); assay: cells; assay type: cell-based; settings: CCK8, 48 h; for IC50: Homo sapiens, SK-BR-3
Protocol: as §1, §2
as §1, with “serum+1×P/S+sodium” for “serum+1XP/S+sodium”, “adjusted to an appropriate density.” for “counted.”
as §3

[3] = system: colo320 (colorectal cancer tissue); assay: cells; assay type: cell-based; settings: CCK8, 48 h, Table 6
Protocol: as §1, with “serum+1×P/S+sodium” for “serum+1XP/S+sodium”, “adjusted to an appropriate density.” for “counted.”
as §3

[4] = system: sarcoma SJSA-1 tumor model
Protocol: Test objective: To investigate the antitumor efficacy of the above compounds in an animal tumor model of sarcoma SJSA-1.
(§4) Test drug: Polypeptide conjugate, Irinotecan, Belotecan and normal saline control group.
(§5) Test animals: 6-8 weeks old BALB/c mice, all female.
(§6) SJSA-1 cells were purchased from ATCC and cultured in a DMEM medium containing 10% fetal bovine serum at 37° C. in 5% CO2. Passaging was performed every three days, and cells within 15 generations were used. 2×10^7 corresponding cells were injected into right chests of nude mice subcutaneously. After a volume of the tumors reached at least 100 mm^3, the mice were grouped randomly, with three mice in each group. Then treatment was started, and the day when the treatment was started was the first day. […] The control group was administered with normal saline. Administration was performed once a week for three weeks.
as §6

[5] = system: colo320 colorectal cancer tumor model
Protocol: Test objective: To investigate the antitumor efficacy of the above compounds in an animal tumor model of colo320 colorectal cancer.
as §4, §5
as §6, with “Passaging” for “SJSA-1 cells were purchased from ATCC and cultured in a DMEM medium containing 10% fetal bovine serum at 37° C. in 5% CO2. Passaging”, “used. 7.5×10^6” for “used. 2×10^7”, “least 120” for “least 100”, “for four” for “for three”

[6] = MTD determination in mice (Examples 27, 36, 44); assay type: in vivo
Source text: Test animals: 6-8 weeks old mice, all female; mice were grouped randomly, with six mice in each group, administered with drugs at different concentration gradients separately and monitored for 14 d. A mouse was euthanized at a loss of 20% of its initial weight and deemed to have died of poisoning.

[7] = 5 mg/kg once a week for three weeks, Table 2
[8] = 5 mg/kg once a week for three weeks, Table 7
[9] = 5 mg/kg once a week for four weeks, Table 3
[10] = 5 mg/kg once a week for four weeks, Table 8
[11] = mice, monitored for 14 d, Table 4
[12] = mice, monitored for 14 d, Table 9
[13] = 15 mg/kg once a week for three weeks, Table 2
[14] = 15 mg/kg once a week for three weeks, Table 7
[15] = 15 mg/kg once a week for four weeks, Table 3
[16] = 15 mg/kg once a week for four weeks, Table 8
[17] = Table 13 (Example 42), dose 15 mg/kg, once a week for four weeks, BALB/c mice
[18] = Table 14 (Example 43), dose 15 mg/kg, once a week for four weeks, BALB/c mice

CC[C@@]1(O)C(=O)OCc2c1cc1n(c2=O)Cc2c-1nc1ccccc1c2CCNC1CCC1 [D7]
IC50 A2780 (ovarian cancer) (A2780 (ovarian cancer); Table 1): 0.0043 mg/L (≈ 0.00965 µM)
IC50 Ovarian cancer tissue (A2780) (A2780 (ovarian cancer); Table 6): 0.0043 mg/L (≈ 0.00965 µM)
IC50 A549 (non-small cell lung cancer) ([1]; Table 1): 0.0074 mg/L (≈ 0.0166 µM)
IC50 Non-small cell lung cancer tissue (A549) ([1]; Table 6): 0.0074 mg/L (≈ 0.0166 µM)
IC50 SJSA-1 (sarcoma tissue) (SJSA-1 (sarcoma tissue); Table 1): 0.0084 mg/L (≈ 0.0189 µM)
IC50 Sarcoma tissue (SJSA-1) (SJSA-1 (sarcoma tissue); Table 6): 0.0084 mg/L (≈ 0.0189 µM)
IC50 SKBR3 (breast cancer tissue) ([2]; Table 1): 0.016 mg/L (≈ 0.0359 µM)
IC50 Breast cancer tissue (SKBR3) ([2]; Table 6): 0.016 mg/L (≈ 0.0359 µM)
IC50 Colorectal cancer tissue (colo320) [3]: 0.017 mg/L (≈ 0.0382 µM)
Mouse weight (%) [4, 7]: −7%
SJSA-1 (sarcoma tissue) mean tumor volume (mm^3) [4, 7]: 1369.5 mm^3
SJSA-1 (sarcoma) Growth rate (%) [4, 7]: 1185.01%
Mouse weight (%) [4, 8]: −7%
SJSA-1 (sarcoma tissue) growth rate (%) [4, 8]: 1185.01%
SJSA-1 (sarcoma tissue) mean tumor volume (mm^3) [4, 8]: 1369.5 mm^3
Mouse weight (%) [5, 9]: −8%
colo320 (colorectal cancer cell) growth rate (%) [5, 9]: 1136.64%
colo320 (colorectal cancer cell) mean tumor volume (mm^3) [5, 9]: 1258.9 mm^3
Mouse weight (%) [5, 10]: −8%
colo320 (colorectal cancer cell) growth rate (%) [5, 10]: 1136.64%
colo320 (colorectal cancer cell) mean tumor volume (mm^3) [5, 10]: 1258.9 mm^3
MTD [6, 11]: 15 mg/kg
MTD [6, 12]: 15 mg/kg

CC[C@@]1(O)C(=O)OCc2c1cc1n(c2=O)Cc2c-1nc1ccccc1c2CCNC1CCCC1 [D8]
IC50 A2780 (ovarian cancer) (A2780 (ovarian cancer); Table 1): 0.015 mg/L (≈ 0.0326 µM)
IC50 Ovarian cancer tissue (A2780) (A2780 (ovarian cancer); Table 6): 0.015 mg/L (≈ 0.0326 µM)
IC50 A549 (non-small cell lung cancer) ([1]; Table 1): 0.016 mg/L (≈ 0.0348 µM)
IC50 Non-small cell lung cancer tissue (A549) ([1]; Table 6): 0.016 mg/L (≈ 0.0348 µM)
IC50 SJSA-1 (sarcoma tissue) (SJSA-1 (sarcoma tissue); Table 1): 0.035 mg/L (≈ 0.0762 µM)
IC50 Sarcoma tissue (SJSA-1) (SJSA-1 (sarcoma tissue); Table 6): 0.035 mg/L (≈ 0.0762 µM)
IC50 SKBR3 (breast cancer tissue) ([2]; Table 1): 0.047 mg/L (≈ 0.102 µM)
IC50 Breast cancer tissue (SKBR3) ([2]; Table 6): 0.047 mg/L (≈ 0.102 µM)
IC50 Colorectal cancer tissue (colo320) [3]: 0.042 mg/L (≈ 0.0914 µM)
Mouse weight (%) [4, 7]: +12%
SJSA-1 (sarcoma tissue) mean tumor volume (mm^3) [4, 7]: 1497.5 mm^3
SJSA-1 (sarcoma) Growth rate (%) [4, 7]: 1295.77%
Mouse weight (%) [4, 8]: +12%
SJSA-1 (sarcoma tissue) growth rate (%) [4, 8]: 1295.77%
SJSA-1 (sarcoma tissue) mean tumor volume (mm^3) [4, 8]: 1497.5 mm^3
Mouse weight (%) [5, 9]: −6%
colo320 (colorectal cancer cell) growth rate (%) [5, 9]: 1082.65%
colo320 (colorectal cancer cell) mean tumor volume (mm^3) [5, 9]: 1199.1 mm^3
Mouse weight (%) [5, 10]: −6%
colo320 (colorectal cancer cell) growth rate (%) [5, 10]: 1082.65%
colo320 (colorectal cancer cell) mean tumor volume (mm^3) [5, 10]: 1199.1 mm^3
MTD [6, 11]: 25 mg/kg
MTD [6, 12]: 25 mg/kg

CCc1c2c(nc3ccc(OC(=O)N4CCC(N5CCCCC5)CC4)cc13)-c1cc3c(c(=O)n1C2)COC(=O)[C@]3(O)CC [Irinotecan, reference compound]
IC50 (A2780 (ovarian cancer); Table 1, read-out: IC50 A2780 (ovarian cancer)): 0.16 mg/L (≈ 0.273 µM)
IC50 (A2780 (ovarian cancer); Table 6, read-out: IC50 Ovarian cancer tissue (A2780)): 0.16 mg/L (≈ 0.273 µM)
IC50 ([1]; Table 1, read-out: IC50 A549 (non-small cell lung cancer)): 0.11 mg/L (≈ 0.187 µM)
IC50 ([1]; Table 6, read-out: IC50 Non-small cell lung cancer tissue (A549)): 0.11 mg/L (≈ 0.187 µM)
IC50 (SJSA-1 (sarcoma tissue); Table 1, read-out: IC50 SJSA-1 (sarcoma tissue)): 0.11 mg/L (≈ 0.187 µM)
IC50 (SJSA-1 (sarcoma tissue); Table 6, read-out: IC50 Sarcoma tissue (SJSA-1)): 0.11 mg/L (≈ 0.187 µM)
IC50 ([2]; Table 1, read-out: IC50 SKBR3 (breast cancer tissue)): 0.25 mg/L (≈ 0.426 µM)
IC50 ([2]; Table 6, read-out: IC50 Breast cancer tissue (SKBR3)): 0.25 mg/L (≈ 0.426 µM)
IC50 ([3]; Homo sapiens, COLO 320): 0.11 mg/L (≈ 0.187 µM)
Mouse weight (%) [4, 13]: +17%
SJSA-1 (sarcoma) Growth rate (%) [4, 13]: 798.05%
Mouse weight (%) [4, 14]: +17%
SJSA-1 (sarcoma tissue) growth rate (%) [4, 14]: 798.05%
Mouse weight (%) [5, 15]: +35%
colo320 (colorectal cancer cell) growth rate (%) [5, 15]: 815.39%
Mouse weight (%) [5, 16]: +35%
colo320 (colorectal cancer cell) growth rate (%) [5, 16]: 815.39%
Mouse weight (%) [5, 17]: +35%
colo320 (colorectal cancer cell) growth rate (%) [5, 17]: 815.39%
Mouse weight (%) [5, 18]: +35%
colo320 (colorectal cancer cell) growth rate (%) [5, 18]: 815.39%
MTD ([6]; female, mouse, in vivo, 'around', read-out: MTD (as stated in dosage instructions)): ~70 mg/kg
MTD ([6]; female, mouse, in vivo, Table 15 (Example 44), mice, six per group, monitored for 14 d, read-out: MTD): 75 mg/kg
MTD ([6]; female, mouse, in vivo, mice, monitored for 14 d, Table 4, read-out: MTD): 75 mg/kg
MTD ([6]; female, mouse, in vivo, mice, monitored for 14 d, Table 9, read-out: MTD): 75 mg/kg
